Results: patent US20250129027A1 (APOGEE PHARMACEUTICALS, INC., priority 2023, published 2025)

Biological target: human recombinant FAAH (Homo sapiens (Human), UniProt O00519)
Experiment: In vitro inhibition of FAAH activity (fluorescent inhibitor screening kit, AMC arachidonoyl amide)
Assay type: biochemical
Settings: human recombinant FAAH; read-out: Inhibition on FAAH activity (IC50)
Source text: The inhibitory effect of compounds of Formula (I-IV) on the activity of human recombinant FAAH was studied using a commercial inhibitor screening kit (Cayman Chemicals, Godlewski et al., 2010 [19]). In brief, FAAH hydrolyzes AMC arachidonoyl amide resulting in the release of the fluorescent product, while the inhibitor will inhibit the FAAH activity and thus reduce the fluorescent signal. The resulting fluorophore can be analyzed using an excitation wavelength of 340-360 nm and an emission wavelength of 450-465 nm by a plate reader (Synergy H1, Biotek). Inhibition is calculated as a percentage of the treated sample over the non-treated control based on the signal values, and where possible, a range of concentrations of compounds was tested to find the IC50 values (i.e. the concentration of compound that inhibited 50% FAAH activity).

Sequence of human recombinant FAAH (O00519 whole entry): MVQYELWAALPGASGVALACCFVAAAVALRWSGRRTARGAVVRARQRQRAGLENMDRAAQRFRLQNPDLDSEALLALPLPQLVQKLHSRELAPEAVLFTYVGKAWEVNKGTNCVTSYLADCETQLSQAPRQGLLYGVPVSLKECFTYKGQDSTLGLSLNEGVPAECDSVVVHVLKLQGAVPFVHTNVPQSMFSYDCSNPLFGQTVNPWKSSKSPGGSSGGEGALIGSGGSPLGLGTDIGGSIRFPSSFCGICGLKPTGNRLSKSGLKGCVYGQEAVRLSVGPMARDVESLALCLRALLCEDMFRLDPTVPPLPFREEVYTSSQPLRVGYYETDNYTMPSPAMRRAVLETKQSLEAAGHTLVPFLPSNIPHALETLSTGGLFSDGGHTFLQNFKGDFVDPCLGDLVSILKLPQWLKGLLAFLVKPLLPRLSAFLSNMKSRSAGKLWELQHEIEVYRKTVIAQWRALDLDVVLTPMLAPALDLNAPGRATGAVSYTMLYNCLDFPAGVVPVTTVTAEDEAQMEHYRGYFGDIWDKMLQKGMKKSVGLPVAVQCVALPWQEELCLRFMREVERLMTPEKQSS

Row | SMILES | IC50 [nM]
1 | CCCCCNC(=O)Oc1cccc(-c2cncc(C(=O)OCC)c2)c1 [Example 1, ethyl 5-(3-((pentylcarbamoyl)oxy)phenyl)nicotinate] | 10 to 100
2 | CCCCCCCCNC(=O)Oc1cccc(-c2cncc(C(=O)OCC)c2)c1 [Example 3, ethyl 5-(3-((octylcarbamoyl)oxy)phenyl)nicotinate] | 10 to 100
3 | CCCCCNC(=O)Oc1cccc(-c2cncc(C(=O)OC)c2)c1 [Example 8, methyl 5-(3-((pentylcarbamoyl)oxy)phenyl)nicotinate] | 10 to 100
4 | CCCCCCCNC(=O)Oc1cccc(-c2cncc(C(=O)OC)c2)c1 [Example 9, methyl 5-(3-((heptylcarbamoyl)oxy)phenyl)nicotinate] | 1 to 10
5 | CCCCCCCCNC(=O)Oc1cccc(-c2cncc(C(=O)OC)c2)c1 [Example 10, methyl 5-(3-((octylcarbamoyl)oxy)phenyl)nicotinate] | 1 to 10
6 | CCCCCCCNC(=O)Oc1cccc(-c2cncc(C#N)c2)c1 [Example 26, 3-(5-cyanopyridin-3-yl)phenyl heptylcarbamate] | 10 to 100
7 | CCCCCCCCNC(=O)Oc1cccc(-c2cncc(C#N)c2)c1 [Example 27, 3-(5-cyanopyridin-3-yl)phenyl octylcarbamate] | 10 to 100
8 | CCCCCCCCNC(=O)Oc1cccc(-c2cncc(C(F)(F)F)c2)c1 [Example 30, 3-(5-(trifluoromethyl)pyridin-3-yl)phenyl octylcarbamate] | 10 to 100
9 | CCCCCCCCNC(=O)Oc1ccc(OC)c(-c2cncc(-c3ccc[nH]3)c2)c1 [Example 41, 3-(5-(1H-pyrrol-2-yl)pyridin-3-yl)-4-methoxyphenyl octylcarbamate] | 10 to 100
10 | CCCCCCCCNC(=O)Oc1cccc(-c2cncc(-c3ccco3)c2)c1 [Example 47, 3-(5-(furan-2-yl)pyridin-3-yl)phenyl octylcarbamate] | 1 to 10
11 | CCCCCCCCNC(=O)Oc1ccc(OC)c(-c2cncc(-c3cccs3)c2)c1 [Example 65, 4-methoxy-3-(5-(thiophen-2-yl)pyridin-3-yl)phenyl octylcarbamate] | 10 to 100
12 | CCCCCCCCNC(=O)Oc1ccc(OC(F)(F)F)c(-c2cncc(-c3ncco3)c2)c1 [Example 88, 3-(5-(oxazol-2-yl)pyridin-3-yl)-4-(trifluoromethoxy)phenyl octylcarbamate] | 10 to 100
13 | CCCCCCNC(=O)Oc1cccc(-c2cncc(-c3nnco3)c2)c1 [Example 128, 3-(5-(1,3,4-oxadiazol-2-yl)pyridin-3-yl)phenyl hexylcarbamate] | 10 to 20
14 | CCCCCCCCNC(=O)Oc1cccc(-c2cncc(-c3nnco3)c2)c1 [Example 130, 3-(5-(1,3,4-oxadiazol-2-yl)pyridine-3-yl)phenyl octylcarbamate] | 1 to 10
15 | CCCCCCCCCCCCNC(=O)Oc1cccc(-c2cncc(-c3nnco3)c2)c1 [Example 131, 3-(5-(1,3,4-oxadiazol-2-yl)pyridin-3-yl)phenyl dodecylcarbamate] | 10 to 20
16 | CCCCCCCNC(=O)Oc1ccc(O)c(-c2cncc(-c3nnco3)c2)c1 [Example 156, 3-(5-(1,3,4-oxadiazol-2-yl)pyridin-3-yl)-4-hydroxyphenyl heptylcarbamate] | 1 to 10
17 | CCCCCCCCNC(=O)Oc1ccc(O)c(-c2cncc(-c3nnco3)c2)c1 [Example 157, 3-(5-(1,3,4-oxadiazol-2-yl)pyridin-3-yl)-4-hydroxyphenyl octylcarbamate] | 1 to 10
18 | CCCCCCCNC(=O)Oc1ccc(OC)c(-c2cncc(-c3nnco3)c2)c1 [Example 166, 3-(5-(1,3,4-oxadiazol-2-yl)pyridin-3-yl)-4-methoxyphenyl heptylcarbamate] | 10 to 100
19 | CCCCCCCCNC(=O)Oc1ccc(OC)c(-c2cncc(-c3nnco3)c2)c1 [Example 167, 3-(5-(1,3,4-oxadiazol-2-yl)pyridin-3-yl)-4-methoxyphenyl octylcarbamate] | 1 to 10
20 | COc1ccc(OC(=O)NC2CCCCC2)cc1-c1cncc(-c2nncs2)c1 [Example 217, 3-(5-(1,3,4-thiadiazol-2-yl)pyridin-3-yl)-4-methoxyphenyl cyclohexylcarbamate] | 100 to 1000
